# Results published in patent US11992473B2, “Compositions and methods for diagnosis and treatment of conditions related to the quality of aging and longevity” (Epitracker, Inc., priority 2018, dated 2024).
# What was measured:
# Format in all cases: cell-based, human
# [1] = test system: Peripheral blood mononuclear cells, B cells; assay: BioMAP Diversity PLUS BT system (T cell dependent B cell activation); details: for interleukin 17A (IL-17A): human cell system mimicking asthma, autoimmunity and allergies (FIG. 5)
# Description: (§1) This study examined activities of small molecules discovered in dolphin serum that had protective profiles against diseases of aging which can impact quality of life and longevity. These molecules were tested across 12 human primary cell-based systems as part of DiscoverX's BioMAP Diversity Plus program. These systems are designed to model complex human tissue and disease biology of the vasculature, skin, lung, and inflammatory tissues. Quantitative measurements of biomarker activities across this broad panel, along with comparative analysis of biological activities of known bioactive agents were used to predict and compare the efficacy and function of the four compounds. Compounds were tested at four concentrations (740 nm and 2.2, 6.7 and 20 μM).
# (§2) BioMAP panels consist of human primary cell-based systems designed to model different aspects of the human body in an in vitro format. The 12 systems in the Diversity PLUS panel allow test agent characterization in an unbiased way across a broad set of systems modeling various human disease states. BioMAP systems are constructed with one or more primary cell types from healthy human donors, with stimuli (such as cytokines or growth factors) added to capture relevant signaling networks that naturally occur in human tissue or pathological conditions. Vascular biology is modeled in both a Th1 (3C system) and a Th2 (4H system) inflammatory environment, as well as in a Th1 inflammatory state specific to arterial smooth muscle cells (CASM3C system). Additional systems recapitulate aspects of the systemic immune response including monocyte-driven Th1 inflammation (LPS system) or T cell stimulation (SAg system), chronic Th1 inflammation driven by macrophage activation (lMphg system) and the T cell-dependent activation of B cells that occurs in germinal centers (BT system). The BE3C system (Th1) and the BF4T system (Th2) represent airway inflammation of the lung, while the MyoF system models myofibroblast-lung tissue remodeling. Lastly, skin biology is addressed in the KF3CT system modeling Th1 cutaneous inflammation and the HDF3CGF system modeling wound healing.
# (§3) Each test agent generates a signature BioMAP profile that is created from the changes in protein biomarker readouts within individual system environments. Biomarker readouts (7-17 per system) are selected for therapeutic and biological relevance, are predictive for disease outcomes or specific drug effects and are validated using agents with known mechanism of action (MoA). Each readout is measured quantitatively by immune-based methods that detect protein (e.g., ELISA) or functional assays that measure proliferation and viability. BioMAP readouts are diverse and include cell surface receptors, cytokines, chemokines, matrix molecules and enzymes.
# (§4) The Diversity PLUS panel allows test agent characterization in an unbiased way across a broad set of systems modeling various human disease states. These systems are designed to model complex human tissue and disease biology of the vasculature, skin, lung, and inflammatory tissues.
# (§5) BioMAP systems are constructed with one or more primary cell types from healthy human donors, with stimuli (such as cytokines or growth factors) added to capture relevant signaling networks that naturally occur in human tissue or pathological conditions. Vascular biology is modeled in both a Th1 (3C system) and a Th2 (4H system) inflammatory environment, as well as in a Th1 inflammatory state specific to arterial smooth muscle cells (CASM3C system). Additional systems recapitulate aspects of the systemic immune response including monocyte-driven Th1 inflammation (LPS system) or T cell stimulation (SAg system), chronic Th1 inflammation driven by macrophage activation (lMphg system) and the T cell-dependent activation of B cells that occurs in germinal centers (BT system).
# Lung fibroblasts = assay: BioMAP Diversity PLUS MyoF system (myofibroblast differentiation and tissue remodeling)
# Description: as §1, §2
# as §3, with “enzymes. In total, the Diversity PLUS panel contains 148 biomarker readouts that capture biological changes that occur within the physiological context of the particular BioMAP system. Specific BioMAP activities have been correlated to in vivo biology, and multiparameter BioMAP profiles have been used to distinguish compounds based on MoA and target selectivity across diverse physiological systems.” for “enzymes.”
# (§6) The Diversity PLUS panel allows test agent characterization in an unbiased way across a broad set of systems modeling various human disease states. These systems are designed to model complex human tissue and disease biology of the vasculature, skin, lung, and inflammatory tissues. Quantitative measurements of 148 biomarker activities across this broad panel, along with comparative analysis of biological activities from known bioactive agents, were used to predict and compare the efficacy and function of each selected compound at four concentrations (740 nm and 2.2, 6.7 and 20 μM). […]
# [2] = test system: Macrophages, venular endothelial cells; assay: BioMAP Diversity PLUS lMphg system (Th1 type chronic inflammation, macrophage activation); details: /Mphg system
# Description: as §1, §2
# as §3, with “enzymes. In total, the Diversity PLUS panel contains 148 biomarker readouts that capture biological changes that occur within the physiological context of the particular BioMAP system. Specific BioMAP activities have been correlated to in vivo biology, and multiparameter BioMAP profiles have been used to distinguish compounds based on MoA and target selectivity across diverse physiological systems.” for “enzymes.”
# as §6
# Dermal fibroblasts = assay: BioMAP Diversity PLUS HDF3CGF system (wound healing and matrix/tissue remodeling); details: for decorin: fibrosis and chronic inflammation (FIG. 7)
# Description: as §1, §2, §3, §4, §5
# [3] = test system: Bronchial epithelial cells; assay: BioMAP Diversity PLUS BE3C system (Th1 type lung inflammation)
# Description: as §1, §2
# as §3, with “enzymes. In total, the Diversity PLUS panel contains 148 biomarker readouts that capture biological changes that occur within the physiological context of the particular BioMAP system. Specific BioMAP activities have been correlated to in vivo biology, and multiparameter BioMAP profiles have been used to distinguish compounds based on MoA and target selectivity across diverse physiological systems.” for “enzymes.”
# as §6
# [4] = test system: Venular endothelial cells, peripheral blood mononuclear cells; assay: BioMAP Diversity PLUS SAg system (T cell stimulation, Th1 type chronic inflammation); details: for Significant log10 reduction compared to nontreated controls: CD40 / Significant log10 reduction compared to nontreated controls: T cell proliferation: SAg system; for CD40 / T cell proliferation: human cell system mimicking T-cell driven chronic inflammation and autoimmune diseases; for CD40: 740 nm, 2.2 μM, and 6.7 μM (FIG. 3); for T cell proliferation: concentrations ranging from 740 nm to 6.7 μM (FIG. 2)
# Description: as §1, §2
# as §3, with “enzymes. In total, the Diversity PLUS panel contains 148 biomarker readouts that capture biological changes that occur within the physiological context of the particular BioMAP system. Specific BioMAP activities have been correlated to in vivo biology, and multiparameter BioMAP profiles have been used to distinguish compounds based on MoA and target selectivity across diverse physiological systems.” for “enzymes.”
# as §6
# [5] = test system: Venular endothelial cells, peripheral blood mononuclear cells; assay: BioMAP Diversity PLUS LPS system (Th1 type chronic inflammation, monocyte activation); details: for secretion of prostaglandin E2 (PGE2): human cell system mimicking T-cell and monocyte driven chronic inflammation and cardiovascular diseases (FIG. 4)
# Description: as §1, §2, §3, §4, §5
# [6] = human cell system mimicking wound healing, remodeling
compound,measurement,setting,value
CC(=O)NCCc1c[nH]cn1 [N-acetylhistamine],Significant log10 reduction compared to nontreated controls: B cell proliferation,"[1]; BT system, 2.2 μM",−0.12 log10
same,Significant log10 reduction compared to nontreated controls: B cell proliferation,"[1]; BT system, 6.7 μM",−0.06 log10
same,Significant log10 reduction compared to nontreated controls: B cell proliferation,"[1]; BT system, 20.0 μM",−0.08 log10
same,Significant log10 reduction compared to nontreated controls: Secreted interleukin 17A (IL-17A),"[1]; BT system, 20.0 μM",−0.19 log10
same,Significant log10 reduction compared to nontreated controls: Secreted interleukin 17F (IL-17F),"[1]; BT system, 20.0 μM",−0.42 log10
same,Significant log10 reduction compared to nontreated controls: Alpha smooth muscle actin (αSMA),Lung fibroblasts; 0.7 μM,−0.05 log10
same,Significant log10 reduction compared to nontreated controls: Alpha smooth muscle actin (αSMA),Lung fibroblasts; 2.2 μM,−0.06 log10
same,Significant log10 reduction compared to nontreated controls: Alpha smooth muscle actin (αSMA),Lung fibroblasts; 6.7 μM,−0.11 log10
same,Significant log10 reduction compared to nontreated controls: Alpha smooth muscle actin (αSMA),Lung fibroblasts; 20.0 μM,−0.09 log10
same,Significant log10 reduction compared to nontreated controls: Monocyte chemoattractant protein 1 (MCP-1),[2]; 2.2 μM,−0.26 log10
same,Significant log10 reduction compared to nontreated controls: Vascular cell adhesion molecule 1 (VCAM-1),"Dermal fibroblasts; HDF3CGF system, 6.7 μM",−0.08 log10
same,Significant log10 reduction compared to nontreated controls: Collagen III,"Dermal fibroblasts; HDF3CGF system, 20.0 μM",−0.13 log10
same,Significant log10 reduction compared to nontreated controls: Vascular cell adhesion molecule 1 (VCAM-1),"Dermal fibroblasts; HDF3CGF system, 20.0 μM",−0.15 log10
"C=CCCCCCCCCC(=O)O [10-undecanoate (C11:1n1), 10-undecanoate]",Significant log10 reduction compared to nontreated controls: Tissue plasminogen activator (tPA),[3]; 2.2 μM,−0.08 log10
same,Significant log10 reduction compared to nontreated controls: Tissue plasminogen activator (tPA),[3]; 6.7 μM,−0.11 log10
same,Significant log10 reduction compared to nontreated controls: Tissue plasminogen activator (tPA),[3]; 20.0 μM,−0.12 log10
same,Significant log10 reduction compared to nontreated controls: CD40,[4]; 0.7 μM,−0.07 log10
same,Significant log10 reduction compared to nontreated controls: CD40,[4]; 2.2 μM,−0.14 log10
same,Significant log10 reduction compared to nontreated controls: CD40,[4]; 6.7 μM,−0.09 log10
same,CD40,[4],lowered
same,T cell proliferation,[4],decreased
same,Significant log10 reduction compared to nontreated controls: Secreted interleukin 17A (IL-17A),"[1]; BT system, 2.2 μM",−0.25 log10
same,Significant log10 reduction compared to nontreated controls: Secreted interleukin 17A (IL-17A),"[1]; BT system, 20.0 μM",−0.20 log10
same,Significant log10 reduction compared to nontreated controls: Secreted tumor necrosis factor alpha (TNFα),"[1]; BT system, 20.0 μM",−0.12 log10
same,interleukin 17A (IL-17A),[1],lowered
same,Significant log10 reduction compared to nontreated controls: Secreted prostaglandin E2 (PGE2),"[5]; LPS system, 0.7 μM",−0.11 log10
same,Significant log10 reduction compared to nontreated controls: Secreted prostaglandin E2 (PGE2),"[5]; LPS system, 2.2 μM",−0.08 log10
same,Significant log10 reduction compared to nontreated controls: Secreted prostaglandin E2 (PGE2),"[5]; LPS system, 6.7 μM",−0.20 log10
same,Significant log10 reduction compared to nontreated controls: CD40,"[5]; LPS system, 20.0 μM",−0.11 log10
same,secretion of prostaglandin E2 (PGE2),[5],lowered
same,Significant log10 reduction compared to nontreated controls: Secreted interleukin 10 (IL-10),[2]; 20.0 μM,−0.21 log10
same,Significant log10 reduction compared to nontreated controls: Macrophage colony-stimulating factor (M-CSF),"Dermal fibroblasts; HDF3CGF system, 0.7 μM",−0.11 log10
same,Significant log10 reduction compared to nontreated controls: Macrophage colony-stimulating factor (M-CSF),"Dermal fibroblasts; HDF3CGF system, 2.2 μM",−0.07 log10
NC(=O)NCCCC[C@H](N)C(=O)O [Homocitrulline],T cell proliferation,[4],decreased
same,secretion of prostaglandin E2 (PGE2),[5],lowered
same,interleukin 8 (IL-8),"Dermal fibroblasts; human cell system mimicking wound healing, remodeling, fibrosis and chronic inflammation (FIG. 8)",inhibitory activity
N[C@@H](CCC(=O)NCC(=O)O)C(=O)O [Gamma-glutamylglycine],Significant log10 reduction compared to nontreated controls: T cell proliferation,[4]; 6.7 μM,−0.11 log10
same,Significant log10 reduction compared to nontreated controls: T cell proliferation,[4]; 20.0 μM,−0.07 log10
same,CD40,[4],lowered
same,T cell proliferation,[4],decreased
same,Significant log10 reduction compared to nontreated controls: Secreted interleukin 17A,"[1]; BT system, 0.7 μM",−0.17 log10
same,Significant log10 reduction compared to nontreated controls: Secreted interleukin 17A (IL-17A),"[1]; BT system, 2.2 μM",−0.17 log10
same,interleukin 17A (IL-17A),[1],lowered
same,secretion of prostaglandin E2 (PGE2),[5],lowered
same,decorin,Dermal fibroblasts; [6],inhibitory activity
NCCCCC(=O)O [5-aminovalerate],Significant log10 reduction compared to nontreated controls: T cell proliferation,[4]; 0.7 μM,−0.7 log10
same,Significant log10 reduction compared to nontreated controls: T cell proliferation,[4]; 2.2 μM,−0.12 log10
same,Significant log10 reduction compared to nontreated controls: T cell proliferation,[4]; 6.7 μM,−0.14 log10
same,T cell proliferation,[4],decreased
same,Significant log10 reduction compared to nontreated controls: Tumor necrosis factor alpha (TNFα),"[1]; BT system, 6.7 μM",−0.11 log10
same,Significant log10 reduction compared to nontreated controls: Secreted prostaglandin E2 (PGE2),"[5]; LPS system, 6.7 μM",−0.10 log10
same,secretion of prostaglandin E2 (PGE2),[5],lowered
same,Significant log10 reduction compared to nontreated controls: Decorin,Lung fibroblasts; 6.7 μM,−0.07 log10
same,Significant log10 reduction compared to nontreated controls: Decorin,Lung fibroblasts; 20.0 μM,−0.10 log10
same,decorin,Dermal fibroblasts; [6],inhibitory activity
